Reference: patent US9782401B1, “Method of isolating phenanthroindolizidine alkaloids from Tylophora atrofolliculata with HIF-1 inhibitory activity, compositions comprising them and their use” (priority 2016, dated 2017)
Where two headings read alike, the source gives them in different places.

Tests used:
[1] = Cytotoxicity by MTT assay against T47D cells; conditions: human
Source text: (§1) All experiments were independently performed at least three times.

HIF-1 [2] = molecular target: T1, HIF-1 (Homo sapiens, UniProt Q16665); assay: HIF-1-mediated reporter gene assay in T47D cells (HRE-luciferase, hypoxia-induced HIF-1 activation); type: cell-based; set-up: endogenous in cells; host or cells: T47D cells (American Type Culture Collection)
T1 sequence (Q16665 whole entry): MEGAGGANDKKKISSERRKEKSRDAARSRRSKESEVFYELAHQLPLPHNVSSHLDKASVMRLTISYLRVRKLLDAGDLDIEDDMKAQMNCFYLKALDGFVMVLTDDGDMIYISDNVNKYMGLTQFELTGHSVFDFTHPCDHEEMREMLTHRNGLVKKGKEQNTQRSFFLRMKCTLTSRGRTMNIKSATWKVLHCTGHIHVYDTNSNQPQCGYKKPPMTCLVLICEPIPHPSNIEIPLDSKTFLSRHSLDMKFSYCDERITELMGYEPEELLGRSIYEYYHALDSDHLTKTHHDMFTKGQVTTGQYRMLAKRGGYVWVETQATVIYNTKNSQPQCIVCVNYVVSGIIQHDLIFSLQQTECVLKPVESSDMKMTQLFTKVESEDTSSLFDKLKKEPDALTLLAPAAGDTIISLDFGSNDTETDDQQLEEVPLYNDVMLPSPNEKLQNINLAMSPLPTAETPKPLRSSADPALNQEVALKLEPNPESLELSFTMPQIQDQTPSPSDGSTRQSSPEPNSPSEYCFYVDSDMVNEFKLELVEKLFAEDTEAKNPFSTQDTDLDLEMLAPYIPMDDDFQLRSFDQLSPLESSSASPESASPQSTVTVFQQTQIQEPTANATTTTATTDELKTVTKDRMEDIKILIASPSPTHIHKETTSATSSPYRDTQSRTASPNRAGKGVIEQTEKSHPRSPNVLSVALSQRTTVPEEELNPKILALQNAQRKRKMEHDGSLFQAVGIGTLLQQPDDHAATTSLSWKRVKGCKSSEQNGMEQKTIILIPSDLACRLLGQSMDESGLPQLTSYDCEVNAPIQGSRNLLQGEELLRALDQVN
Experimental: The HIF-1-mediated reporter gene assay in T47D cells was performed according to a previous protocol with minor modification (Parhira, S. et al., Sci. Rep., 2014, 4, 4748). T47D cells (American Type Culture Collection) were cultured in DMEM medium (Invitrogen), supplemented with 10% (v/v) fetal serum (FBS) (Invitrogen), 100 U/mL penicillin, and 100 μg/mL streptomycin (Invitrogen) in a humidified atmosphere (5% CO2 and 95% air) at 37° C. Cells (5×10^6) were co-transfected with the HRE-luciferase (Addgene) and Renilla plasmids using Lipofectamine 2000 (Invitrogen) according to the manufacturer's protocol. The transfected cells were seeded in 96-well plates with a density of 5×10^4/well and cultured in DMEM with 10% FBS overnight. After addition of the test compounds with different concentrations, the cells were incubated for 1 h, and then exposed to hypoxic (2% O2/5% CO2/93% N2) or normoxic (5% CO2/95% air) conditions at 37° C. for 20 h. Then the cells were lysed, and luciferase assay was performed using a Dual-Luciferase® reporter assay (Promega) kit according to the instructions of the manufacturer. Luciferase activities of both HRE and Renilla were determined by a multimode reader (Infinite 200 PRO, Teacan). HIF-1 transcriptional activity was shown by the ratio of firefly/Renilla luciferase activity. IC50 values were determined from the dose-response curves using Prism software. The data were repeated by three independent experiments.

T47D cells = assay: Cytotoxicity by MTT assay against T47D cells; conditions: read-out: Cytotoxicity against T47D cells IC50 (nM) Hypoxic; T47D cells, hypoxic conditions, MTT assay
Source text: as §1

HIF-1 [3] = molecular target: T1, HIF-1; conditions: literature value (Hodges et al. 2004; Cai et al. 2006); read-out: HIF-1 inhibition IC50 (literature); cited from earlier work
[4] = Cytotoxicity against T47D cells IC50 (nM) Hypoxic, T47D cells, hypoxic conditions, MTT assay
[5] = Cytotoxicity against T47D cells IC50 (nM) Normoxic, T47D cells, normoxic conditions, MTT assay
[6] = T47D cells, Cytotoxicity against T47D cells IC50 (nM) Hypoxic, hypoxic conditions, MTT assay
[7] = T47D cells, Cytotoxicity against T47D cells IC50 (nM) Normoxic, normoxic conditions, MTT assay
[8] = T47D human breast tumor cells, HIF-1 activation induced by hypoxia (2% O2, 20 h), means±SD, read-out: HIF-1 activation inhibitory activity IC50 (nM) T47D

SMILES | IC50 [1, 4] [nM] | IC50 [1, 5] [nM] | IC50 (HIF-1 [2]) [nM] | IC50 [1, 6] [nM] | IC50 [1, 7] [nM] | further results
COc1ccc2c3c(c4cc(OC)c(OC)cc4c2c1)CN1CCC[C@H]1[C@@H]3O [compound 18, tylophorinine] | > 500 | > 500 | 19 | – | – | –
COc1ccc2c3c(c4cc(OC)c(OC)cc4c2c1)C[N@+]1([O-])CCC[C@H]1C3 [compound 12, 10R-deoxytylophorinine N-oxide] | > 2000 | > 1000 | 254 | – | – | –
COc1cc2c3c(c4ccc(O)cc4c2cc1O)[C@H](O)[C@@H]1CCCN1C3 [compound 13, 3-O-demethyl tylophorinidine] | – | – | 10 | > 250 | > 250 | –
COc1ccc2c3c(c4cc(OC)c(OC)cc4c2c1)C[N+]1([O-])CCC[C@@H]1[C@@H]3O (stereo partly shown) [compound 17, tylophorinine N-oxide] | – | – | 3 | – | – | IC50 [1]: > 100 nM; IC50 (T47D cells): > 100 nM
COc1ccc2c3c(c4cc(OC)c(O)cc4c2c1)C[N+]1([O-])CCC[C@H]1[C@H]3O (stereo partly shown) [compound 16, tylophoridicine C] | – | – | 25 | – | – | IC50 [1]: > 100 nM; IC50 (T47D cells): > 100 nM
COc1ccc2c3c(c4cc(OC)c(O)cc4c2c1)CN1CCC[C@H]1[C@H]3O [compound 14, tylophorinidine] | – | – | 4 | > 100 | > 10 | –
COc1ccc2c3c(c4cc(OC)c(OC)cc4c2c1)CN1O[C@@H](CC(C)=O)CC[C@H]1[C@H]3O (single isomer, unassigned) [compound 3, 12S, 14aS, 15S-11-oxa-12-(2-oxopropyl)-hydroxyboehmeriasin A] | – | – | – | > 20000 | > 10000 | IC50 (HIF-1 [2]; [8]): 2660 ± 1810 nM
COc1cc2c3c(c4cc(O)c(OC)cc4c2cc1O)CC1CCCN1C3 (stereo not shown) [compound 4, 2-hydroxyl deoxytylophorinidine] | > 500 | > 500 | 19 ± 2 | – | – | –
COc1cc2c3c(c4cc(OC)c(OC)cc4c2cc1OC)CN1CCC[C@H]1C3 [compound 19, 13aS-tylophorine] | > 2000 | > 1000 | 438 | – | – | –
COc1cc2c3c(c4cc(OC)c(OC)cc4c2cc1OC)C[N@+]1([O-])CCC[C@H]1C3 [compound 11, 10R, 13aS-tylophorine N-oxide] | – | – | – | > 2000 | > 2000 | IC50 (HIF-1 [2]; [8]): 930 nM
COc1cc2c3c(c4ccc(O)cc4c2cc1O)[C@@H](O)[C@@H]1CCC[N@@+]1([O-])C3 [compound 6, 10R, 14R-3-O-demethyl tylophorinidine N-oxide] | – | – | – | > 200 | > 200 | IC50 (HIF-1 [2]; [8]): 50 ± 35 nM
COc1cc2c3c(c4cc(OC)c(OC)cc4c2cc1OC)[C@H](O)[C@@H]1CCC[N@@+]1([O-])C3 [compound 10, 10R, 13aS, 14S-14-hydroxytylophorine N-oxide] | – | – | – | > 2000 | > 2000 | IC50 (HIF-1 [2]; [8]): 441 nM
COc1ccc([C@@H](O)[C@@H](C)Oc2ccc([C@H]3O[C@H](c4ccc(O[C@H](C)[C@H](O)c5ccc6c(c5)OCO6)c(OC)c4)[C@H](C)[C@H]3C)cc2OC)cc1OC [Manassantin B] | – | – | – | – | – | IC50 (HIF-1 [3]): 3 nM
COc1cc2c3c(c4cc(O)c(OC)cc4c2cc1O)[C@@H](O)[C@H]1CCC[N@+]1([O-])C3 [compound 7, 10S, 13aR, 14R-2-hydroxyl tylophorinidine N-oxide] | – | – | – | > 1000 | > 1000 | IC50 (HIF-1 [2]; [8]): 37 ± 8 nM
COc1cc2c3c(c4cc(O)c(OC)cc4c2cc1O)C(O)C1CCCN1C3 (stereo not shown) [compound 5, 2-hydroxyl tylophorinidine] | – | – | 10 | > 250 | > 250 | –
COc1ccc2c3c(c4cc(OC)c(OC)cc4c2c1)CN1CCC[C@H]1[C@H]3O [compound 21, O-methyl-tylophorindine] | > 12500 | > 500 | 13 | – | – | –
COc1ccc2c3c(c4cc(OC)c(OC)cc4c2c1)CN1CCC[C@H]1C3 [compound 20, deoxytylophorinine] | > 15000 | > 600 | 115 | – | – | times more potent than its dehydrogenated product (22) (HIF-1 [2]; compound (20) versus (22), HIF-1 IC50): at least 8 times
COc1cc2c(cc1O)c1c(c3cc(OC)c(OC)cc32)CN2CCC[C@@H]2[C@@H]1O [compound 9, 13aR-2-hydroxyl tylophorinine] | > 2000 | > 2000 | 489 ± 108 | – | – | –
COc1cc2c(cc1O)c1c(c3cc(OC)c(OC)cc32)C[N@+]2([O-])CCC[C@H]2[C@@H]1O [compound 8, 10R-2-hydroxyl tylophorinine N-oxide] | – | – | 170 ± 106 | > 1000 | > 1000 | –
COc1ccc2c(c1)c1cc(OC)c(OC)cc1c1c[n+]3c(cc21)CCC3 [compound 22, tylophoridicine D] | – | – | > 10000 | – | – | –
COc1ccc2c3c(c4cc(OC)c(O)cc4c2c1)CN1C(=O)CC[C@H]1[C@H]3O [compound 1, 11-keto-tylophorinidine] | – | – | > 10000 | – | – | –
COc1cc2c3c(c4ccc(O)cc4c2cc1OC)[C@H](O)[C@@H]1CCCN1C3 [compound 15, trans-(+)-3,14a-dihydroxy-6,7-dimethoxyphenanthroindolizidine] | – | – | – | > 250 | > 250 | IC50 (HIF-1 [2]; [8]): 6 ± 3 nM
